Measured values: patent publication US20230026611A1, “ARYL HETEROCYCLIC COMPOUNDS AS Kv1.3 POTASSIUM SHAKER CHANNEL BLOCKERS” (D. E. Shaw Research, LLC, priority 2019, published 2023)

Assays:
Kv1.3 potassium channel = target: T1, Kv1.3 potassium channel (Homo sapiens, UniProt P22001); assay: Kv1.3 potassium channel blocker activity, automated whole-cell patch clamp (Patchliner) in CHO-K1 cells stably expressing Kv1.3; format: cell-based; details: CHO-K1 cells stably expressing Kv1.3; patch clamp, current inhibition; read-out: Kv1.3 IC50
T1 construct: expressed in transfected cells
T1 sequence (P22001 whole entry): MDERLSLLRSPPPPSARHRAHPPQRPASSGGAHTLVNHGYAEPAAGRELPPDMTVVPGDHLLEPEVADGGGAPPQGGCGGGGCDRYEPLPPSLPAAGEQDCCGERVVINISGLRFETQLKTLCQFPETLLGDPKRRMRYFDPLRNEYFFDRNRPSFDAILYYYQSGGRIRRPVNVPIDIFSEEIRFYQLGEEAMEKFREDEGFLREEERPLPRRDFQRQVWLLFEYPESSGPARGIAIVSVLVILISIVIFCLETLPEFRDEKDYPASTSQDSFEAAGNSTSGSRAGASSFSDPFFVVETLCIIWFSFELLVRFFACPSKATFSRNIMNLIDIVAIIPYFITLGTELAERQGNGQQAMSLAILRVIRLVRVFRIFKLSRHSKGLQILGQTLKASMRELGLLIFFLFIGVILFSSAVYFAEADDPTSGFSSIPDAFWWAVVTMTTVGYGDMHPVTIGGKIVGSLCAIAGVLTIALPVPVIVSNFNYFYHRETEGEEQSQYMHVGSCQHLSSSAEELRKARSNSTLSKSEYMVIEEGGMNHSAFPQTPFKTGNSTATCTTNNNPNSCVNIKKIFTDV
Procedure: Example 82. Evaluation of Kv1.3 potassium channel blocker activities
This assay is used to evaluate the disclosed compounds' activities as Kv1.3 potassium channel blockers.
CHO-K1 cells stably expressing Kv1.3 were grown in DMEM containing 10% heat-inactivated FBS, 1 mM sodium pyruvate, 2 mM L-glutamine, and G418 (500 μg/ml).
All compounds were dissolved in DMSO at 30 mM.
The currents were evoked by applying 100 ms depolarizing pulses from −90 mV (holding potential) to +40 mV were applied with 0.1 Hz frequency. […] 10-second breaks were used between pulse trains (see Table A below).
Data were sampled at 10 kHz without filtering. Passive leak currents were subtracted online using a P/4 procedure (HEKA Elektronik Dr. Schulze GmbH). […] Total compound incubation time before the next pulse train was not longer than 10 seconds. Peak current inhibition was observed during compound equilibration.

hERG channel = hERG channel (Homo sapiens, UniProt Q12809); assay: hERG electrophysiology, automated whole-cell patch clamp (Patchliner) in CHO-K1 cells stably expressing hERG
Chain of hERG channel (Q12809 whole entry): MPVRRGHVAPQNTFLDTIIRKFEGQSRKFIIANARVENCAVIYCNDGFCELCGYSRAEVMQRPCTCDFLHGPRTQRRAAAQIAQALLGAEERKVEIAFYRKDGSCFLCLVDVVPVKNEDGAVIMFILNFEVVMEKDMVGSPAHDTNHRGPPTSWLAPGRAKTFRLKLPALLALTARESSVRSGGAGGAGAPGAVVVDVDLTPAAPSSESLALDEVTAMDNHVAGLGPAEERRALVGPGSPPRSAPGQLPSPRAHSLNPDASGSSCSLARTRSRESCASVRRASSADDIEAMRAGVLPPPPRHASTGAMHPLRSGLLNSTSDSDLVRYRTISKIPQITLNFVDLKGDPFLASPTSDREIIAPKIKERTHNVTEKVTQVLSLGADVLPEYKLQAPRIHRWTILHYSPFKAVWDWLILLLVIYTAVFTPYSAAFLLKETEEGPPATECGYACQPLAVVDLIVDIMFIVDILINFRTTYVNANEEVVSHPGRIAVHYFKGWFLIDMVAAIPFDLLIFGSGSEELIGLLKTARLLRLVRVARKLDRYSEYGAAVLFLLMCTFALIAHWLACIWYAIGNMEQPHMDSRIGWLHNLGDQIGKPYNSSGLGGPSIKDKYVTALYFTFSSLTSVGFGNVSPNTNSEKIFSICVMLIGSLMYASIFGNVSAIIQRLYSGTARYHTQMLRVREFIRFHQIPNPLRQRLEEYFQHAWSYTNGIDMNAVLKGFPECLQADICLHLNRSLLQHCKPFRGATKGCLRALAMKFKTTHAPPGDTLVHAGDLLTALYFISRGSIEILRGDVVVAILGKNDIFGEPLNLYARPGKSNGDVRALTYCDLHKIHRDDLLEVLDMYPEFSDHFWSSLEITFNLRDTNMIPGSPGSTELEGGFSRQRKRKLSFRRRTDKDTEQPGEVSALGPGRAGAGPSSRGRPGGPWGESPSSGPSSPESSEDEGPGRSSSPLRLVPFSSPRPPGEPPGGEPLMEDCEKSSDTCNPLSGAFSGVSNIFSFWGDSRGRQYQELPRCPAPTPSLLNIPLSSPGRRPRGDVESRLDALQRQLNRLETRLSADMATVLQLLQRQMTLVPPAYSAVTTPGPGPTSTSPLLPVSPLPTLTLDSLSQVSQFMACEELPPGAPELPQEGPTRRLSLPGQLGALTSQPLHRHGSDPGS
Procedure: Evaluation of hERG Activities
This assay is used to evaluate the disclosed compounds's inhibition activities against the hERG channel.
CHO-K1 cells stably expressing hERG were grown in Ham's F-12 Medium with glutamine containing 10% heat-inactivated FBS, 1% penicillin/streptomycin, hygromycin (100 μg/ml) and G418 (100 μg/ml). Cells were grown in culture flasks at 37° C. in a 5% CO2-humidified incubator.
The cells were bathed in an extracellular solution containing 140 mM NaCl, 4 mM KCl, 2 mM CaCl2), 1 mM MgCl2, 5 mM Glucose, 10 mM HEPES; pH adjusted to 7.4 with NaOH; 295-305 mOsm. The internal solution contained 50 mM KCl, 10 mM NaCl, 60 mM KF, 20 mM EGTA, 10 mM HEPES; pH adjusted to 7.2 with KOH; 285 mOsm. All compounds were dissolved in DMSO at 30 mM. Compound stock solutions were freshly diluted with external solution to concentrations of 30 nM, 100 nM, 300 nM, 1 μM, 3 μM, 10 μM, 30 μM and 100 μM. The highest content of DMSO (0.3%) was present in 100 μM.
The voltage protocol (see Table B) was designed to simulate voltage changes during a cardiac action potential with a 300 ms depolarization to +20 mV (analogous to the plateau phase of the cardiac action potential), a repolarization for 300 ms to −50 mV (inducing a tail current) and a final step to the holding potential of −80 mV. The pulse frequency was 0.3 Hz. Control (compound-free) and compound pulse trains for each compound concentration applied contained 70 pulses.
Whole-cell current recordings and compound application were enabled by means of an automated patch clamp platform Patchliner (Nanion). EPC 10 patch clamp amplifier (HEKA) along with Patchmaster software (HEKA Elektronik Dr. Schulze GmbH) was used for data acquisition. Data were sampled at 10 kHz without filtering. Increasing compound concentrations were applied consecutively to the same cell without washouts in between.
AUC and PEAK values were obtained with Patchmaster (HEKA Elektronik Dr. Schulze GmbH). To determine IC50 the last single pulse in the pulse train corresponding to a given compound concentration was used. Obtained AUC and PEAK values in the presence of compound were normalized to control values in the absence of compound. Using Origin (OridinLab), IC50 was derived from data fit to Hill equation: Icompound/control=(100−A)/(1+([compound]/IC50)nH)+A, where IC50 is the concentration at which current inhibition is half-maximal, [compound] is the applied compound concentration, A is the fraction of current that is not blocked and nH is the Hill coefficient.

What does the source list for `O=C(NC1CNC1)C1CCC(c2c(O)ccc(Cl)c2Cl)NC1` (centres unmarked) [Compound 125, N-(azetidin-3-yl)-6-(2,3-dichloro-6-hydroxyphenyl)piperidine-3-carboxamide]?
IC50 (Kv1.3 potassium channel): < 10 µM; IC50 (hERG channel): > 100 µM

What does the source list for `NC(=O)[C@H]1C[C@@H](c2c(O)ccc(Cl)c2Cl)CCN1` (single isomer, unassigned) [Compound 70]?
IC50 (Kv1.3 potassium channel): < 1 µM; IC50 (hERG channel): > 30 µM

How did the IC50 (Kv1.3 potassium channel) turn out when `Oc1ccc2ccccc2c1C1CCNCC1` [Compound 18, 1-(piperidin-4-yl)naphthalen-2-ol] was run?
Its IC50 is less than 1 µM.

And the IC50 (hERG channel)?
Its IC50 is less than 30 µM.

With `O=C([C@H]1CCNC1)N1CCC(c2c(O)cc(Cl)c(Cl)c2Cl)CC1` [Compound 91, 3,4,5-trichloro-2-[1-[(3S)-pyrrolidine-3-carbonyl]piperidin-4-yl]phenol] as the compound, how does the IC50 (Kv1.3 potassium channel) read?
Its IC50 is less than 1 µM.

What about the IC50 (hERG channel) of the same compound?
Its IC50 is less than 30 µM.

What does the source list for `CNC(=O)C[C@H]1C[C@@H](c2c(O)ccc(Cl)c2Cl)CCN1` (single isomer, unassigned) [Compound 30]?
IC50 (Kv1.3 potassium channel): < 1 µM; IC50 (hERG channel): > 30 µM

Which IC50 (Kv1.3 potassium channel) does the source give for `NC(=O)C1CC(c2c(O)cc(Cl)c(Cl)c2Cl)CCN1` (centres unmarked) [Compound 61, 4-(2,3,4-trichloro-6-hydroxyphenyl)piperidine-2-carboxamide] here?
Its IC50 is less than 1 µM.

What about the IC50 (hERG channel) of the same compound?
Its IC50 is less than 30 µM.

What does the source list for `O=C(C[C@@H]1C[C@H](c2c(O)ccc(Cl)c2Cl)CCN1)N1CCOCC1` (single isomer, unassigned) [Compound 32]?
IC50 (Kv1.3 potassium channel): < 1 µM; IC50 (hERG channel): > 30 µM

How did the IC50 (Kv1.3 potassium channel) turn out when `CS(=O)(=O)NC[C@H]1C[C@@H](c2c(O)ccc(Cl)c2Cl)CCN1` (relative stereo) [Compound 110, (2R,4S)-rel-N-[[4-(2,3-dichloro-6-hydroxyphenyl)piperidin-2-yl]methyl]methanesulfonamide] was run?
The IC50 was less than 1 µM.

What about the IC50 (hERG channel) of the same compound?
Its IC50 is greater than 30 µM.

How did the IC50 (Kv1.3 potassium channel) turn out when `NC(=O)[C@H]1C[C@@H](c2cc(Cl)c(Cl)cc2O)CCN1` (relative stereo) [Compound 85, (2R,4S)-rel-4-(4,5-dichloro-2-hydroxyphenyl)piperidine-2-carboxamide] was run?
The IC50 was less than 1 µM.

What about the IC50 (hERG channel) of the same compound?
Its IC50 is greater than 30 µM.

For `NC(=O)CC1CC(c2c(O)ccc(Cl)c2Cl)CCN1` [Compound 101, 2-[(2R,4S)-rel-4-(2,3-dichloro-6-hydroxyphenyl)piperidin-2-yl]acetamide], which IC50 (Kv1.3 potassium channel) is on record?
Its IC50 is less than 1 µM.

And the IC50 (hERG channel)?
Its IC50 is greater than 30 µM.

Which results are given for `Oc1cc(Cl)c(Cl)cc1C1CCNCC1` [Compound 3, 4,5-dichloro-2-(piperidin-4-yl)phenol]?
IC50 (Kv1.3 potassium channel): < 1 µM; IC50 (hERG channel): < 30 µM

What does the source list for `CS(=O)(=O)NCC1CC(c2c(O)ccc(Cl)c2Cl)CCN1` [Compound 100, (2R,4S)-rel-N-[[4-(2,3-dichloro-6-hydroxyphenyl)piperidin-2-yl]methyl]methanesulfonamide]?
IC50 (Kv1.3 potassium channel): < 1 µM; IC50 (hERG channel): > 30 µM

For `NC(=O)N1CCC(c2c(O)cc(Cl)c(Cl)c2Cl)CC1` [Compound 60, 4-(2,3,4-trichloro-6-hydroxyphenyl)piperidine-1-carboxamide], which IC50 (Kv1.3 potassium channel) is on record?
Its IC50 is less than 1 µM.

What about the IC50 (hERG channel) of the same compound?
Its IC50 is less than 30 µM.

With `NC(=O)[C@H]1C[C@@H](c2c(O)cc(Cl)c(Cl)c2Cl)CCN1` (single isomer, unassigned) [Compound 65] as the compound, how does the IC50 (Kv1.3 potassium channel) read?
Its IC50 is less than 1 µM.

What about the IC50 (hERG channel) of the same compound?
The IC50 was less than 30 µM.

Which results are given for `OCC1CC(c2cc(Cl)c(Cl)cc2O)CCN1` (centres unmarked) [Compound 27, 4,5-dichloro-2-[2-(hydroxymethyl)piperidin-4-yl]phenol]?
IC50 (Kv1.3 potassium channel): < 10 µM; IC50 (hERG channel): > 30 µM

`CC(=O)NC[C@@H]1CC(c2c(O)ccc(Cl)c2Cl)CCN1` (single isomer, unassigned) [Compound 89] was tested. Which IC50 (Kv1.3 potassium channel) did it give?
Its IC50 is less than 1 µM.

What about the IC50 (hERG channel) of the same compound?
Its IC50 is greater than 30 µM.

With `O=C(C[C@H]1C[C@@H](c2c(O)ccc(Cl)c2Cl)CCN1)N1CCOCC1` (relative stereo) [Compound 113, 2-[4-(2,3-dichloro-6-hydroxyphenyl)piperidin-2-yl]-1-(morpholin-4-yl)ethan-1-one] as the compound, how does the IC50 (Kv1.3 potassium channel) read?
The IC50 was less than 1 µM.

And the IC50 (hERG channel)?
The IC50 was greater than 30 µM.

`CNC(=O)C[C@@H]1C[C@H](c2c(O)ccc(Cl)c2Cl)CCN1` (single isomer, unassigned) [Compound 14] was tested. Which IC50 (Kv1.3 potassium channel) did it give?
The IC50 was less than 1 µM.

What about the IC50 (hERG channel) of the same compound?
The IC50 was greater than 30 µM.

Which results are given for `Nc1nnc(C2CC(c3c(O)ccc(Cl)c3Cl)CCN2)o1` [Compound 99, (2R,4S)-rel-2-(2-(5-amino-1,3,4-oxadiazol-2-yl)piperidin-4-yl)-3,4-dichlorophenol]?
IC50 (Kv1.3 potassium channel): < 1 µM; IC50 (hERG channel): > 30 µM

What does the source list for `CNC(=O)C[C@H]1C[C@@H](c2c(O)ccc(Cl)c2Cl)CCN1` (relative stereo) [Compound 115, 2-[4-(2,3-dichloro-6-hydroxyphenyl)piperidin-2-yl]-N-methylacetamide]?
IC50 (Kv1.3 potassium channel): < 1 µM; IC50 (hERG channel): > 30 µM

What does the source list for `Oc1cc(Cl)c(Cl)c(Cl)c1C1CCNCC1` [Compound 44, 3,4,5-trichloro-2-(piperidin-4-yl)phenol]?
IC50 (Kv1.3 potassium channel): < 1 µM; IC50 (hERG channel): < 30 µM

What does the source list for `O=C(CO)N1CCC(c2c(O)cc(Cl)c(Cl)c2Cl)CC1` [Compound 93, 2-hydroxy-1-[4-(2,3,4-trichloro-6-hydroxyphenyl)piperidin-1-yl]ethan-1-one]?
IC50 (Kv1.3 potassium channel): < 1 µM; IC50 (hERG channel): < 30 µM

How did the IC50 (Kv1.3 potassium channel) turn out when `Oc1ccc(Cl)c(Cl)c1C1CCNC(c2cn[nH]c2)C1` (centres unmarked) [Compound 116, 3,4-dichloro-2-[2-(1H-pyrazol-4-yl)piperidin-4-yl]phenol] was run?
Its IC50 is less than 1 µM.

What about the IC50 (hERG channel) of the same compound?
Its IC50 is greater than 30 µM.

How did the IC50 (Kv1.3 potassium channel) turn out when `O=C(NC1CNC1)C1CCNC(c2c(O)ccc(Cl)c2Cl)C1` (centres unmarked) [Compound 126, N-(azetidin-3-yl)-2-(2,3-dichloro-6-hydroxyphenyl)piperidine-4-carboxamide] was run?
The IC50 was less than 10 µM.

What about the IC50 (hERG channel) of the same compound?
The IC50 was greater than 30 µM.

`CC(=O)NC[C@H]1C[C@@H](c2c(O)ccc(Cl)c2Cl)CCN1` (single isomer, unassigned) [Compound 86] was tested. Which IC50 (Kv1.3 potassium channel) did it give?
The IC50 was less than 1 µM.

And the IC50 (hERG channel)?
Its IC50 is greater than 30 µM.

Which IC50 (Kv1.3 potassium channel) does the source give for `NC(=O)[C@@H]1C[C@H](c2c(O)cc(Cl)c(Cl)c2Cl)CCN1` (single isomer, unassigned) [Compound 63] here?
The IC50 was less than 1 µM.

What about the IC50 (hERG channel) of the same compound?
Its IC50 is less than 30 µM.

`CNC1CCN(c2cc(Cl)c(Cl)cc2O)CC1` [Compound 24, 4,5-dichloro-2-[4-(methylamino)pip-eridin-1-yl]phenol] was tested. Which IC50 (Kv1.3 potassium channel) did it give?
The IC50 was less than 1 µM.

What about the IC50 (hERG channel) of the same compound?
The IC50 was less than 30 µM.

Which results are given for `Oc1cc(Cl)cc(Cl)c1C1CCNCC1` [Compound 57, 3,5-dichloro-2-(piperidin-4-yl)phenol]?
IC50 (Kv1.3 potassium channel): < 1 µM; IC50 (hERG channel): < 30 µM

What does the source list for `Oc1cc(Cl)c(Cl)cc1C1CCNC1` (centres unmarked) [Compound 21, 4,5-dichloro-2-(pyrrolidin-3-yl)phenol]?
IC50 (Kv1.3 potassium channel): < 1 µM; IC50 (hERG channel): < 30 µM

`Oc1ccc(Cl)c(Cl)c1C1CCNCC1` [Compound 55, 3,4-dichloro-2-(piperidin-4-yl)phenol] was tested. Which IC50 (Kv1.3 potassium channel) did it give?
Its IC50 is less than 1 µM.

And the IC50 (hERG channel)?
The IC50 was less than 30 µM.

How did the IC50 (Kv1.3 potassium channel) turn out when `NC(=O)[C@H]1CNCC[C@H]1c1cc(Cl)c(Cl)cc1O` (single isomer, unassigned) [Compound 42] was run?
Its IC50 is less than 1 µM.

What about the IC50 (hERG channel) of the same compound?
Its IC50 is greater than 30 µM.

Which results are given for `Oc1cc(Cl)c(Cl)cc1C1CCCNC1` (centres unmarked) [Compound 16, 4,5-dichloro-2-(piperidin-3-yl)phenol]?
IC50 (Kv1.3 potassium channel): < 1 µM; IC50 (hERG channel): < 30 µM

Which IC50 (Kv1.3 potassium channel) does the source give for `Oc1cc(Cl)c(Cl)cc1C1=CCNCC1` [Compound 9, 4,5-dichloro-2-(1,2,3,6-tetrahydropyridin-4-yl)phenol] here?
Its IC50 is less than 1 µM.

And the IC50 (hERG channel)?
Its IC50 is less than 30 µM.

How did the IC50 (Kv1.3 potassium channel) turn out when `O=S(=O)(NCC1CC(c2c(O)ccc(Cl)c2Cl)CCN1)c1cccnc1` [Compound 6, N-(2R,4S)-rel-[[4-(2,3-dichloro-6-hydroxyphenyl)piperidin-2-yl]methyl]pyridine-3-sulfonamide] was run?
Its IC50 is less than 1 µM.

What about the IC50 (hERG channel) of the same compound?
Its IC50 is greater than 30 µM.

With `Cn1cc(NC(=O)C[C@H]2C[C@@H](c3c(O)ccc(Cl)c3Cl)CCN2)cn1` (relative stereo) [Compound 114, (2R,4S)-rel-2-[4-(2,3-dichloro-6-hydroxyphenyl)piperidin-2-yl]-N-(1-methyl-1H-pyrazol-4-yl)acetamide] as the compound, how does the IC50 (Kv1.3 potassium channel) read?
The IC50 was less than 1 µM.

What about the IC50 (hERG channel) of the same compound?
Its IC50 is greater than 30 µM.

Which IC50 (Kv1.3 potassium channel) does the source give for `Oc1cc(Cl)c(Cl)cc1C1CCNC1` (single isomer, unassigned) [Compound 38, 4,5-dichloro-2-(pyrrolidin-3-yl)phenol] here?
Its IC50 is less than 1 µM.

And the IC50 (hERG channel)?
Its IC50 is less than 30 µM.

What does the source list for `CS(=O)(=O)NC[C@@H]1C[C@H](c2c(O)ccc(Cl)c2Cl)CCN1` (single isomer, unassigned) [Compound 107]?
IC50 (Kv1.3 potassium channel): < 1 µM; IC50 (hERG channel): > 30 µM

Which results are given for `Oc1c(C2CCNCC2)cc(Cl)c(Cl)c1Cl` [Compound 54, 2,3,4-trichloro-6-(piperidin-4-yl)phenol]?
IC50 (Kv1.3 potassium channel): < 10 µM; IC50 (hERG channel): < 30 µM

`NC[C@H]1C[C@@H](c2c(O)ccc(Cl)c2Cl)CCN1` (relative stereo) [Compound 74, (2R,4S)-rel-2-(aminomethyl)piperidin-4-yl]-3,4-dichlorophenol] was tested. Which IC50 (Kv1.3 potassium channel) did it give?
The IC50 was less than 1 µM.

What about the IC50 (hERG channel) of the same compound?
Its IC50 is greater than 30 µM.

For `NC(=O)NCC1CC(c2c(O)ccc(Cl)c2Cl)CCN1` [Compound 102, (2R,4S)-rel-[4-(2,3-dichloro-6-hydroxyphenyl)piperidin-2-yl]methylurea], which IC50 (Kv1.3 potassium channel) is on record?
Its IC50 is less than 1 µM.

And the IC50 (hERG channel)?
Its IC50 is greater than 30 µM.
